This is an account of results in PMC10970644, “Molecular Pharmacology of Gelsemium Alkaloids on Inhibitory Receptors” (International Journal of Molecular Sciences, 2024).

Holding throughout (assay): cell-based
What all share (assay type): cell-based

The target in one experiment is T1, α1 GlyR (Rattus norvegicus, UniProt P07727).
T1 construct: expressed in transfected cells; host or cells: HEK293 (ATCC CRL-1573)
T1 sequence (P07727 29-457): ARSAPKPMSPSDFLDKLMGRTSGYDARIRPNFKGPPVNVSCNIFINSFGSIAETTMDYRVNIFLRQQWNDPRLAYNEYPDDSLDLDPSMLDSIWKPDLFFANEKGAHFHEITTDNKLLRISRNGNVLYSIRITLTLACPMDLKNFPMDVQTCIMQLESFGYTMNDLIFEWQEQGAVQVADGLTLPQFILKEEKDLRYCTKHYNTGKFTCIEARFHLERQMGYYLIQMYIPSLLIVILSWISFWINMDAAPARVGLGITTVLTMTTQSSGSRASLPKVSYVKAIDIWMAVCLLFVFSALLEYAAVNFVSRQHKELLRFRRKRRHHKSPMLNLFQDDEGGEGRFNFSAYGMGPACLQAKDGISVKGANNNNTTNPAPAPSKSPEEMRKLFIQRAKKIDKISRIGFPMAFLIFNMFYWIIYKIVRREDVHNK
As to the method:
(§1) The cells were transfected with plasmids encoding the following proteins: (i). rat GlyR α (1, 2, 3) subunits alone or combined with rat β subunits (Uniprot Accession Numbers: Q546L7, P22771, P20236, P20781); and (ii). rat GABAAR α1 combined with rat β2 and γ2 subunits (Uniprot Accession Numbers: P62813, P63138, P18508). The EGFP expression was used as a marker of successful protein expression. The transfection was performed using Lipofectamine 2000 (Invitrogen, ThermoFisher, Carlsbad, CA, USA) using the fabricant protocol. The plasmids used to express GlyRs and GABAARs have been previously described. To track the successful expression of GlyR β subunits and the GABAA γ2 or β2 subunit, these proteins were subcloned in the pIRES2-EGFP vector. The transfection ratio to obtain β-containing GlyRs was 1:5 of α:β, while the expression of γ2-containing GABAA receptors was 1:2:5 of α:β:γ2 [14, 15]. Chimeric GlyRs were described in a previous report. Site directed mutagenesis was performed by Charm Gene Science Mutagenex LLC. (Cumming, GA, USA). All the constructs were checked by full-length sequencing (SNPSaurus, Eugene, OR, USA).
(§2) In brief, patch electrodes (3–4 MΩ) were pulled from borosilicate glasses in a PC-100 puller (Narishige, Tokyo, Japan); then, they were filled with an intracellular solution, which contained (in mM) 120 CsCl, 8 EGTA, 10 HEPES (pH 7.4), 4 MgCl2, 0.5 GTP, and 2 ATP. The extracellular solution contained (in mM) 140 NaCl, 5.4 KCl, 2.0 CaCl2, 1.0 MgCl2, 10 HEPES (pH 7.4), and 10 glucose. Whole-cell patch-clamp recordings were performed at −60 mV with an Axoclamp 200B (Molecular Devices, Sunnyvale, CA, USA) or with HEKA EPC-10 (HEKA Elektronik GmbH, Reutlingen, Germany) amplifiers. […] Brief (3–5 s) pulses of agonist together with alkaloids were applied to cells. Stock solutions of the alkaloids were prepared in high purity distilled water. Aliquots of these stock solutions were diluted in reservoirs containing extracellular solution. […] The concentration–response curve parameters for the alkaloid inhibition (IC50, nH, and the maximal current inhibition) were obtained from the fitted curve of normalized concentration–response data points to the equation Iagonist = Imax (agonist)nH/((agonist)nH + (EC50)nH). The IC50 curves are best-fit mean ± SE from pooled data. […] The inhibition constant (Ki) was calculated using the Cheng–Prusoff equation (Ki = IC50/((2 + ([Agonist]/EC50)^nH)^1/nH − 1). The concentration of agonist corresponds to the sub-saturating agonist concentration used to obtain the IC50 for each alkaloid on a given GlyR subtype.

For another experiment, the target named is T2, α2β GlyR (Rattus norvegicus, UniProt P20781+P22771).
T2 construct: The cells were transfected with plasmids encoding the following proteins; expressed in transfected cells; host or cells: HEK293 (ATCC CRL-1573)
T2 sequence (P22771 28-452): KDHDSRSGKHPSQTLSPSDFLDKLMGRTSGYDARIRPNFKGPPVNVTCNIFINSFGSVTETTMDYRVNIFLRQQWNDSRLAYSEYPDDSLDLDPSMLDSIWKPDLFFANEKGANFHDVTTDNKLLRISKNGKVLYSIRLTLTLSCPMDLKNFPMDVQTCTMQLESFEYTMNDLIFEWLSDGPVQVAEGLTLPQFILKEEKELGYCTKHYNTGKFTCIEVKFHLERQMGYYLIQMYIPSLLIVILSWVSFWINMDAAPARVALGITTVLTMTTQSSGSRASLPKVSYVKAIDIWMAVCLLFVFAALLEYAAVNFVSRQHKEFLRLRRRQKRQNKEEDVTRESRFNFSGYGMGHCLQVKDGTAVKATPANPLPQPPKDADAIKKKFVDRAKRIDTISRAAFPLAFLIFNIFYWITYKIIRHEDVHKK
T2 sequence (P20781 23-496): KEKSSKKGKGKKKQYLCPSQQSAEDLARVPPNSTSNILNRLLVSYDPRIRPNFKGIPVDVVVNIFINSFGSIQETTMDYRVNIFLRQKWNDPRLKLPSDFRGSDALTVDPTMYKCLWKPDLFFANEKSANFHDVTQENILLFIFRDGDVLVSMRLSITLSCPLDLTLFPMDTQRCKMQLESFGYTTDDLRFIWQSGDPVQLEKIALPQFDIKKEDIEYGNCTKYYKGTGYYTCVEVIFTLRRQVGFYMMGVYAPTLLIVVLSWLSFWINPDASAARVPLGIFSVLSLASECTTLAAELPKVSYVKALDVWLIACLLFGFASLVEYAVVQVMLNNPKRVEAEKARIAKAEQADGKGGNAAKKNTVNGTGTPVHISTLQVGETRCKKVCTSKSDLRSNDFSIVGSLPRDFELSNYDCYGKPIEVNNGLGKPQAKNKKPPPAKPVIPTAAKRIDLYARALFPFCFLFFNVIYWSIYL
As to the method: as §1, §2

The target of another experiment is T3, α3 GlyR (Rattus norvegicus, UniProt P24524).
T3 construct: expressed in transfected cells; host or cells: HEK293 (ATCC CRL-1573)
T3 sequence (P24524 34-464): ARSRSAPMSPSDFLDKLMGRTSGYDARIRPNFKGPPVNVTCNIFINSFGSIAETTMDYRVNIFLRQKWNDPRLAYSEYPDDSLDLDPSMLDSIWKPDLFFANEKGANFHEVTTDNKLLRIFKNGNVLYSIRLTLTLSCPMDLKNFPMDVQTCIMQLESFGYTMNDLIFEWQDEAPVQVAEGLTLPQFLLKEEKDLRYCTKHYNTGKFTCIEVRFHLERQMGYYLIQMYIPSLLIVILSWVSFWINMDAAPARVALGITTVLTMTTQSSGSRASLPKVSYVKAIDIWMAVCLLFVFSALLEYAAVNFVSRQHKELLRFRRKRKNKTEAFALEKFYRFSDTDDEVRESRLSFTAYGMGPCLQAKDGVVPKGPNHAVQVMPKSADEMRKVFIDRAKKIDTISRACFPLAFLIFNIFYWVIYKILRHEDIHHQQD
As to the method: as §1, §2

[1] abbreviates: Hill coefficient of inhibition curve.
Setting [2] is: calculated using the Cheng–Prussof equation.
The mark [3] stands for this setting: percentage change of glycine-evoked current.

On to `C=C[C@]12CN(C)[C@@H]3[C@H]4CO[C@H](C[C@H]41)[C@]1(C(=O)Nc4ccccc41)[C@@H]32` [gelsemine], for which the “effect on glycine-evoked currents (in words)” value at α1 GlyR (wild-type, 10 μM gelsemine, 35 μM glycine) is reported as “potentiated”.

In general, EC50 refers to the concentration that produces a half-maximal response. In the case of `NCC(=O)O` [glycine, reference compound], the EC50 was 105 ± 9 µM on α2β GlyR (read-out: EC50 of agonist) and 150 ± 10 µM on α3 GlyR (read-out: EC50 of agonist).

Usually IC50 stands for the point on the concentration scale where inhibition reaches its midpoint. A lower IC50 goes with greater potency. As usually defined, the Ki is the equilibrium dissociation constant of an inhibitor or competing ligand from its target. For the molecule `C=C[C@@]12CN(C)[C@H]3C[C@]14C(=Nc1ccccc14)[C@H]1C[C@@H]2[C@@H]3CO1` [koumine], the IC50 at α1 GlyR was 31.5 ± 1.7 µM; on α2β GlyR, 23.6 ± 8.3 µM; against α3 GlyR it was 15.8 ± 4.6 µM. For the same molecule, the figures for the nH at α1 GlyR (setting [1]), at α2β GlyR (setting [1]) and on α3 GlyR (setting [1]) were 1.7 ± 0.1, 1.3 ± 0.6 and 0.9 ± 0.2, respectively. Also, the Ki is 53.1 ± 17.1 µM on α1 GlyR (setting [2]), 57.4 ± 4 µM on α2β GlyR (setting [2]) and 33.9 ± 15.8 µM on α3 GlyR (setting [2]). For the same molecule, the “Maximal Modulation” value at α1 GlyR (setting [3]) was −95.0 ± 1.5%; at α3 GlyR (setting [3]) it was −87.3 ± 4.0%.
